# In patent US11746086B2, “Non-aggregating heptamethine cyanine fluorophores for in vivo imaging” (The USA, as represented by the Secretary, Department of …, priority 2018, dated 2023):
# Assays:
# [1] = tested on: MDA-MB-468 tumor; test: Dose lowering in vivo imaging study (10, 5, 1 μg) of DOL 4 conjugates; parameters: species or system athymic nude mice; conditions: for tumor signal visualization over dosage range: DOL 4, 10, 5 and 1 μg tail injection
# Procedure: (§1) Animal Tumors Models: In vivo studies were performed according to the Frederick National Laboratory for Cancer Research (Frederick, Md.) Animal Care and Use committee guidelines. Fluorescence was longitudinally monitored employing the IVIS spectrum imager (PerkinElmer Inc, Waltham, Mass.). Imager specific Living Image software was used for image acquisition and analysis. Mice body temperature were maintained constant at 37° C. during the imaging procedure with a heated pad located under the anesthesia induction chamber, imaging table, and post procedure recovery cage. All mice were anesthetized in the induction chamber with 3% isoflurane with filtered (0.2 μm) air at 1 liter/minute flow rate for 3-4 minutes and then modified for imaging to 2% with O2 as a carrier with a flow rate of 1 liter/minute. Static 2D images were acquired with the following parameters: excitation filter 745±15 nm, emission filter 800±10 nm, f/stop2, medium binning (8×8) and auto exposure (typically 1-60 seconds). 5-week old female athymic nude mice were purchased from Charles River Laboratories International, Inc. (NCI-Frederick). MDA-MB-468 (5×10^6) in 100 μL of Hanks Balanced Salt Solution were injected the mice subcutaneously in the right dorsum. The size of the tumors were continuously monitored to reach 4-6 mm. In vivo studies were initiated 10 days post cell injection of the mice.
# (§2) Data Analysis: Images were obtained using a Pearl Imager (LI-COR) using 800 nm fluorescence channel. Using white light images, the tumors were identified, and regions of interest (ROIs) were located on the tumors, livers, and necks (used as background). The intensities of ROIs were measured based on the total radiance efficiency using fluorescence images and analyzed using Living Image software. Statistics (unpaired t-test) were carried out using Prism 8.
# A dose lowering study with the goal of defining an optimal dose for FNIR-Tag conjugates was performed. Three doses, 10 μg, 5 μg, and 1 μg, which span the lower end of the doses used in prior studies, were examined. […]
# [2] = Photochemical properties of panitumumab conjugates (absorption/emission spectra, H-aggregation, absolute quantum yield); format: physicochemical
# Procedure: (§3) Absolute quantum yields (ΦF) were measured using a Quantaurus-QY spectrometer (Hamamatsu, model C11374). This instrument is equipped with an integrating sphere to determine photons absorbed and emitted by a sample. Measurements were carried out at a concentration of 500 nM in PBS (50 mM, pH 7.4) and self-absorption corrections were performed using the instrument software.
# The photochemical properties of these conjugates were analyzed by several methods. Absorption/emission curves were obtained following dilution in 50 mM PBS to yield solutions that were 500 nM in protein concentration. […] A 3 h incubation time at room temperature elapsed prior to acquisition. Conjugates were diluted 40-fold into 1:1 MeOH:50 mM PBS and their absorption spectra were recorded on a plate reader using a 384 well plate transparent in the 280 nm range (i.e. UV Co-Star μclear 384 well plate from Greiner Bio-One).
# To examine the relative brightness of these conjugates on an in vivo system, phantom imaging on the Perkin-Elmer IVIS® imaging system was performed.
# [3] = Photostability (photooxidation kinetics) of free dyes under 780 nm LED; format: physicochemical; conditions: for photooxidation k: 1 μM in 50 mM PBS pH 7.4, 780 nm+/−20 nm LED, 20 mW/cm^2
# Procedure: Stock solutions of 5 mM FNIR-Tag and IRDye®-800CW in DMSO were diluted into 50 mM PBS (pH=7.4) to afford 1 μM solutions. The photostability was determined using a procedure described previously using a 780 nm+/−20 nm LED at a light intensity of 20 mW/cm^2 (Nani et al., ACS Central Sci 2017, 3:329). […] As expected both of the free dyes have similar photostability.
# [4] = tested on: EGFR+ tumors; test: In vivo fluorescence imaging of panitumumab conjugates, 100 μg dose; parameters: species or system athymic nude mice; conditions: for tumor radiance output relative to IRDye-800CW conjugate: 48 h (peak accumulation), normalized to tumor size
# Procedure: as §1, §2
# Reduced dye aggregation was speculated to impact the pharmacokinetics. […] Fluorescence dorsal and ventral images were recorded at 0 h, 10 min, 24 h, 48 h, and 1 week post-injection. […]
# [5] = Absorption/emission maxima, molar absorption coefficient, absolute quantum yield and brightness of free dyes; format: physicochemical; conditions: free dye; for ε / λabs / ΦF (PBS): PBS; for ΦF (PBS): absolute quantum yield; for ε × ΦF: brightness in PBS; for Relative brightness (PBS): relative to FNIR-Tag = 1.0; for λem: λexcitation = 740 nm
# Procedure: Determination of Molar Absorption Coefficients and Absolute Fluorescence Quantum Yields: Molar absorption coefficients (c) were determined in PBS (pH 7.4) or 1:1 (v/v) MeOH/PBS (pH 7.4) using Beer's law, from plots of absorbance vs. concentration. Measurements were performed in 10 mm path length quartz cuvettes (Hellma 111-QS), maintained at 25° C., with absorbance at the highest concentration≤0.20.
# as §3
# Properties of FNIR-Tag and IRDye®-800CW are shown below in Table 1. […] Both dyes have similar absorption coefficients (ε), absolute quantum yields (ΦF) and brightness (ε×ΦF) in PBS solution, with free IR-800CW being slightly brighter
# [6] = panitumumab conjugates DOL 1, 2, 4, 500 nM in PBS
ε [5],λabs [5],ΦF (PBS) [5],ε × ΦF [5],Relative brightness (PBS) [5],λem [5],λem ([5]; listed as IR-800CW),"half-life at 1 μM ([3]; buffer, pH 7.4)",quantum yield of the free dye ([2]; free dye),Compound,"fluorescence intensity (total radiance normalized to tumor size) compared with IRDye-800CW conjugates ([1]; DOL 4, 10, 5, 1 μg, 4 h to 7 days)",tumor signal visualization over dosage range [1],"absolute quantum yield of fluorescence (ΦF) with increasing labeling density ([2]; conjugates DOL 1, 2, 4, PBS, 250 nM effective dye concentration)","fluorescent emission as function of labeling density [2, 6]",photooxidation k [3],"liver uptake (liver-to-background ratio) compared with FNIR-Tag conjugates ([4]; 100 μg, DOL 2 and 4, 10 min time point)","absolute quantum yield of fluorescence (ΦF), end of decrease with increased labeling ([2]; antibody conjugates, high labeling, PBS, 250 nM effective dye concentration)","absolute quantum yield of fluorescence (ΦF), start of decrease with increased labeling ([2]; antibody conjugates, low labeling, PBS, 250 nM effective dye concentration)","tumor radiance output relative to IRDye-800CW conjugate ([4]; DOL 2, 100 μg tail injection)","tumor radiance output relative to IRDye-800CW conjugate ([4]; DOL 4, 100 μg tail injection)","H-aggregate peak in the absorption spectrum (~705 nm) [2, 6]"
,,,,,,,,,FNIR-Tag-panitumumab conjugates,significantly higher fluorescence intensity,Clearly discernable signals,~10%,increases with higher labeling density,,,,,,,
240 000 M^−1 · cm^−1,774 nm,0.087,23 490,1.2,795ª nm,795 nm,,,CC1(C)C(=CC=C2CCCC(C=CC3=[N+](CCCCCC(=O)[O-])c4ccc(S(=O)(=O)[O-])cc4C3(C)C)=C2Oc2ccc(S(=O)(=O)[O-])cc2)N(CCCCS(=O)(=O)[O-])c2ccc(S(=O)(=O)[O-])cc21.[Na+].[Na+].[Na+].[Na+] [IRDye®-800CW],,,,nearly constant across the range of labeling density,0.04463,significantly higher liver uptake,,,,,
,,,,,,,,,"IRDye®-800CW conjugates: panitumumab labeled with IRDye®-800CW-NHS, comparator conjugates [reference compound]",,could not be visualized below 5 μg,,,,,~2.5%,~9%,,,
200 000 M^−1 · cm^−1,765 nm,0.099,19 800,1.0,,,16.2 min,10%,COCCOCCOCCN1/C(=C/C=C2\CCCC(/C=C/C3=[N+](CCOCCOCCOC)c4ccc(S(=O)(=O)[O-])cc4C3(C)C)=C2OCCC[N+](C)(C)CCCC(=O)ON2C(=O)CCC2=O)C(C)(C)c2cc(S(=O)(=O)[O-])ccc21 [FNIR-Tag],,,,,0.04274,,,,2.5 ×,7.1 ×,does not form a significant H-aggregate band
